These results are taken from BindingDB's records for doi:10.1021/jm00196a019 (1979).

For orientation: IC50 means the concentration that inhibits the measured activity by half.

This assay deals with Enterococcus faecalis. The assay can be described thus: Antibacterial activity against Streptococcus faecalis assessed as growth inhibition.

As for `Nc1nc(N)c2cc(S(=O)(=O)c3ccc4ccccc4c3)ccc2n1` [6-naphthalen-2-ylsulfonylquinazoline-2,4-diamine], the IC50 worked out at 0.02 nM.
